From US20180016548A1, “ACELLULAR SCAFFOLDS FOR MATURATION OF IPSC-HEPATOCYTES” (Northwestern University, priority 2016, published 2018)

Test system: CYP1A2
Test: CYP1A2 enzyme activity in iPSC-hepatocytes (Luc-ME luminescence)
Type: cell-based, human
Details: in comparison to primary hepatocytes, 5 μM inducer for 48 h
Description: 100 μl of this luciferin medium was added to a 96-well white opaque plate with 100 μl luciferin detection reagent, and the luminescence signal was measured on a Cytation 3 Cell Imaging Multi-Mode Reader (BioTek Inc. Winooski, Vt.). After determining the activity, the amount of cells in each scaffold or sandwich culture was analyzed with Quant-iT™ Pico Green kit following the protocols described above.

Cc1ccc2cc3c(ccc4ccccc43)c3c2c1CC3 [3-methylcholanthrene]
induction of CYP1A2 activity: modest
